“And” between values parts separate entries of the source, which are not always exact repeats. Equal values may be shown once. Marks after values point to notes of the source that are not given here.
How the values were obtained:
[1] = tested on: PD-L1 mRNA; test: Change of PD-L1 expression level by JPH2O3, quantitative PCR in OST cells; assay type: cell-based, human; details: 30 μM, 24 hours treatment
Experimental: (§1) The LAT1 activity was suppressed using an inhibitor JPH2O3 instead of the gene suppression using siRNA, and it was examined whether results similar to Test Example 5 would be obtained. JPH2O3 is O-(5-amino-2-phenylbenzoxazol-7-yl)methyl-3,5-dichloro-L-tyrosine. HuccT1 cells (derived from human bile duct cancer) and OST cells (derived from human fibrosarcoma of bone) were seeded in culture dishes. After treatment with 30 μM of JPH2O3 (LAT1 selective inhibitor) for 24 hours, cells were collected and mRNA expression levels of PD-L1 were analyzed by quantitative PCR.
(§2) In Table 8, the mRNA expression levels per cell are expressed as relative values, with the expression level of the control that was not treated with JPH2O3 being 1. In both HuccT1 cells and OST cells, the expression of PD-L1 was increased. […] Moreover, since the inhibition of LAT1 increased the expression of PD-L1, it is considered that the LAT1 inhibition therapy can increase the expression level of PD-L1 as well as reduce the expression level or activity of LAT1 in patients. In other words, it is considered that the expression level of PD-L1 in patients can be brought close to those in patients of the P-predominance type by the LAT1 inhibition therapy.

[2] = tested on: PD-L1 mRNA; test: Change of PD-L1 expression level by JPH2O3, quantitative PCR in HuccT1 cells; assay type: cell-based, human; details: 30 μM, 24 hours treatment
Experimental: as §1, §2

[3] = tested on: advanced non-small cell lung cancers (Stage III/IV); test: Response to nivolumab in non-small cell lung cancer patients, determined by CT in accordance with RECIST; assay type: in vivo, human
Experimental: Cancer tissues were collected from 21 patients with first line anticancer therapy resistant/relapsed advanced non-small cell lung cancers (Stage III/IV) incorporated in this examination, and the expressions of LAT1 and PD-L1 were examined by immunohistochemistry using an anti-LAT1 antibody and an anti-PD-L1 antibody. Tumors were determined as positive when the cell membrane of the tumors, together with PD-L1 and LAT1, were stained. Tumors having 10% or more of PD-L1-positive cells were defined as having high PD-L1 expression, and tumors having 25% or more of LAT1-positive cells were defined as having high LAT1 expression.
The response rate was evaluated in accordance with the international criteria for which the tumor sizes are measured by CT and the tumors are classified into response, progression, or stable. The response refers to cases where 30% or more decrease is observed in the longer axis of the tumor after the administration of the agent. The progression refers to cases where the 20% or more increase is observed in the longer axis of the tumor after the administration of the agent. The stable refers to cases where the shrinkage of the tumor is insufficient to classify it as response and the increase of the tumor in comparison with the minimum sum of the longest axis after the start of the therapy is insufficient to classify it as progression.

[4] = tested on: PD-L1 mRNA; test: siRNA knockdown, PD-L1 mRNA by quantitative PCR in H520 cells; assay type: cell-based, human; details: 48 hours after siRNA introduction, relative value with control siRNA = 1, n = 4
Experimental: (§3) The suppression of mRNA expression of PD-L1 or LAT1 at the transcriptional level was attempted using siRNA. WiDr cells (derived from human colon-adenocarcinoma), SKN cells (human uterine leiomyosarcoma cells), and H520 cells (human pulmonary squamous cell carcinoma cells) were seeded in culture dishes. siRNA that suppresses the mRNA expression of PD-L1, siRNA that suppresses the mRNA expression of LAT1, or a control siRNA was introduced into cells. As the siRNA, Silencer (registered trademark) Select siRNAs of the Ambion (registered trademark) series from Thermo Fisher Scientific K.K. Specifically, siPD-L1 #2 (siRNA ID: s26548) set forth in SEQ ID NOs: 1 and 2 was used as the siRNA for suppressing the mRNA expression of PD-L1, siLAT1 #3 (siRNA ID: s15653) set forth in SEQ ID NOs: 3 and 4 was used as the siRNA for suppressing the mRNA expression of LAT1, and Silencer Select Negative control #2 (Cat #: 390847) was used as the control siRNA. Cells were collected 48 hours later, when the suppression effect on expression tends to be prominent, and mRNA expression levels of LAT1 and PD-L1 per cell were analyzed by quantitative PCR.
(§4) In Table 7, the mRNA expression levels per cell are expressed as relative values, with the mRNA expression level in the cells, to which the control siRNA was introduced, being 1. […]

[5] = tested on: PD-L1 mRNA; test: siRNA knockdown, PD-L1 mRNA by quantitative PCR in WiDr cells; assay type: cell-based, human; details: 48 hours after siRNA introduction, relative value with control siRNA = 1, n = 4
Experimental: as §3, §4

[6] = tested on: PD-L1 mRNA; test: siRNA knockdown, PD-L1 mRNA by quantitative PCR in SKN cells; assay type: cell-based, human; details: 48 hours after siRNA introduction, relative value with control siRNA = 1, n = 4
Experimental: as §3, §4

[7] = tested on: LAT1 mRNA; test: siRNA knockdown, LAT1 mRNA by quantitative PCR in WiDr cells; assay type: cell-based, human; details: 48 hours after siRNA introduction, relative value with control siRNA = 1, n = 4
Experimental: as §3, §4

[8] = tested on: LAT1 mRNA; test: siRNA knockdown, LAT1 mRNA by quantitative PCR in H520 cells; assay type: cell-based, human; details: 48 hours after siRNA introduction, relative value with control siRNA = 1, n = 4
Experimental: as §3, §4

[9] = tested on: LAT1 mRNA; test: siRNA knockdown, LAT1 mRNA by quantitative PCR in SKN cells; assay type: cell-based, human; details: 48 hours after siRNA introduction, relative value with control siRNA = 1, n = 4
Experimental: as §3, §4

[10] = relative value with untreated control = 1, n = 4
[11] = relative value with untreated control = 1, n = 4, listed as JPH2O3
[12] = PD-L1 high expression group (8 patients), RECIST
[13] = PD-L1 low expression group (13 patients), RECIST
[14] = high LAT1 expression group (9 patients), RECIST
[15] = low LAT1 expression group (12 patients), RECIST
[16] = single patient of FIG. 8, high PD-L1 and low LAT1 expression

## Nc1cc(COc2c(Cl)cc(C[C@H](N)C(=O)O)cc2Cl)c2oc(-c3ccccc3)nc2c1 [JPH203, O-(5-amino-2-phenylbenzoxazol-7-yl)methyl-3,5-dichloro-L-tyrosine]
[1]; [10]
  PD-L1 mRNA expression level: 2.79*
[1]; [11]
  PD-L1 mRNA expression level: increased
[2]; [10]
  PD-L1 mRNA expression level: 12.26**
[2]; [11]
  PD-L1 mRNA expression level: increased

## nivolumab
[3]; [12]
  patients exhibited a response: 4 patients
  patients exhibited progression: 1 patient
[3]; [13]
  patients exhibited a response: 3 patients
  patients exhibited progression: 7 patients
[3]; all 21 patients
  patients exhibited a response: 7 patients
  patients exhibited no response: 14 patients
  patients exhibited progression: 7 patients
  response rate: 33%
[3]; [14]
  patients exhibited a response: 1 patient
  patients exhibited progression: 6 patients and 5 patients
[3]; [15]
  patients exhibited a response: 4 patients and 6 patients
  patients exhibited progression: 3 patients and 2 patients
[3]; [16]
  outcome of nivolumab treatment: responded
  progression-free survival: ≥ 10 months
[3]; single patient of FIG. 9, high LAT1 and low PD-L1 expression
  outcome of nivolumab treatment: progression
[3]; single patient of FIG. 10, high PD-L1 and high LAT1 expression
  outcome of nivolumab treatment: progression

## si-LAT1: Silencer Select siRNA set forth in SEQ ID NOs: 3 and 4, suppressing the mRNA expression of LAT1 (chain 1 UGUCCAAUCUAGAUCCCAATT; chain 2 UUGGGAUCUAGAUUGGACACA; chemistry not given here)
[4]
  PD-L1 mRNA expression level: 0.82***
[5]
  PD-L1 mRNA expression level: 1.82***
[6]
  PD-L1 mRNA expression level: 1.04***
[7]
  LAT1 mRNA expression level: 0.11
[8]
  LAT1 mRNA expression level: 0.11
[9]
  LAT1 mRNA expression level: 0.06

## si-PD-L1: Silencer Select siRNA set forth in SEQ ID NOs: 1 and 2, suppressing the mRNA expression of PD-L1 (chain 1 GGACUCACUUGGUAAUUCUTT; chain 2 AGAAUUACCAAGUGAGUCCTT; chemistry not given here)
[4]
  PD-L1 mRNA expression level: 0.37
[5]
  PD-L1 mRNA expression level: 0.46
[6]
  PD-L1 mRNA expression level: 0.24
[7]
  LAT1 mRNA expression level: 5.01***
[8]
  LAT1 mRNA expression level: 2.29***
[9]
  LAT1 mRNA expression level: 1.52***

Source: US11899019B2, “Method for predicting efficacy of anti-PD-1 antibody or anti-PD-L1 antibody therapy, method for evaluating cancer grade, and method for enhancing efficacy of anti-PD-1 antibody or anti-PD-L1 antibody therapy” (J-Pharma Co., Ltd., priority 2017, dated 2024)
